Where a SMILES comes first, the peptide text is derived from it. Bridges are numbered along the chain shown (N, C = ends).
test: Determination of the protein binding (90% serum, 30 kDa filter, HPLC); type: in vitro ADME; details: serum
Experimental: Protein binding assays were performed as follows. The purified peptides were mixed with 90% serum and centrifuged through a 30 kDa filter. The ultra-filtrate and the non filtrated serum samples were quantified by HPLC measurements and the protein binding was subsequently calculated.

**Q.** For `CC(C)[C@@H]1NC(=O)CNC(=O)[C@H](CC(N)=O)NC(=O)[C@H](CCCNC(=N)N)NC(=O)[C@H](Cc2ccc(O)cc2)NC(=O)[C@H](C(C)C)NC(=O)[C@@H]2CSSC[C@H](NC(=O)[C@H](C(C)C)NC(=O)[C@H](CCCNC(=N)N)NC1=O)C(=O)N[C@@H](Cc1c[nH]cn1)C(=O)N[C@@H](CCCNC(=N)N)C(=O)N[C@@H](CCCNC(=N)N)C(=O)N[C@H](C(=O)N[C@@H](CC(N)=O)C(=O)O)CSSC[C@H](NC(=O)[C@H](Cc1ccccc1)NC(=O)CN)C(=O)N[C@@H](Cc1c[nH]c3ccccc13)C(=O)N[C@@H](CC(N)=O)C(=O)N[C@@H](Cc1ccccc1)C(=O)N2` [compound 260] (H-GFCWNFCVYRNGVRVCHRRCN-OH; disulfide 3-20, 7-16 (inferred); N-terminus and C-terminus assumed), which fraction unbound is on record?
**A.** 0.16

**Q.** Which fraction unbound does the source give for `CC[C@H](C)[C@@H]1NC(=O)[C@H](CC(N)=O)NC(=O)[C@H](Cc2c[nH]c3ccccc23)NC(=O)[C@@H](NC(=O)[C@H](Cc2ccccc2)NC(=O)CN)CSSC[C@@H](C(=O)N[C@@H](CC(N)=O)C(=O)O)NC(=O)[C@H](CCCNC(=N)N)NC(=O)[C@H](CCCNC(=N)N)NC(=O)[C@H](Cc2c[nH]cn2)NC(=O)[C@@H]2CSSC[C@H](NC1=O)C(=O)N[C@@H](C(C)C)C(=O)N[C@@H](Cc1ccc(O)cc1)C(=O)N[C@@H](CCCNC(=N)N)C(=O)N[C@@H](CC(N)=O)C(=O)NCC(=O)N[C@@H](C(C)C)C(=O)N[C@@H](CCCNC(=N)N)C(=O)N[C@@H](C(C)C)C(=O)N2` [compound 262] (H-GFCWNICVYRNGVRVCHRRCN-OH; disulfide 3-20, 7-16 (inferred); N-terminus and C-terminus assumed) here?
**A.** 0.12

**Q.** For `CC(C)C[C@@H]1NC(=O)[C@H](CC(N)=O)NC(=O)[C@H](Cc2c[nH]c3ccccc23)NC(=O)[C@@H](NC(=O)[C@H](Cc2ccccc2)NC(=O)CN)CSSC[C@@H](C(=O)N[C@@H](CC(N)=O)C(=O)O)NC(=O)[C@H](CCCNC(=N)N)NC(=O)[C@H](CCCNC(=N)N)NC(=O)[C@H](Cc2c[nH]cn2)NC(=O)[C@@H]2CSSC[C@H](NC1=O)C(=O)N[C@@H](C(C)C)C(=O)N[C@@H](Cc1ccc(O)cc1)C(=O)N[C@@H](CCCNC(=N)N)C(=O)N[C@@H](CC(N)=O)C(=O)NCC(=O)N[C@@H](C(C)C)C(=O)N[C@@H](CCCNC(=N)N)C(=O)N[C@@H](C(C)C)C(=O)N2` [compound 263] (H-GFCWNLCVYRNGVRVCHRRCN-OH; disulfide 3-20, 7-16 (inferred); N-terminus and C-terminus assumed), which fraction unbound is on record?
**A.** 0.2

**Q.** With `CC(C)[C@@H]1NC(=O)CNC(=O)[C@H](CC(N)=O)NC(=O)[C@H](CCCNC(=N)N)NC(=O)[C@H](Cc2ccc(O)cc2)NC(=O)[C@H](C(C)C)NC(=O)[C@@H]2CSSC[C@H](NC(=O)[C@H](C(C)C)NC(=O)[C@H](CCCNC(=N)N)NC1=O)C(=O)N[C@@H](Cc1c[nH]cn1)C(=O)N[C@@H](CCCNC(=N)N)C(=O)N[C@@H](CCCNC(=N)N)C(=O)N[C@H](C(=O)N[C@@H](CC(N)=O)C(=O)O)CSSC[C@H](NC(=O)[C@H](Cc1ccccc1)NC(=O)CN)C(=O)N[C@@H](Cc1c[nH]c3ccccc13)C(=O)N[C@@H](CC(N)=O)C(=O)N[C@@H](Cc1c[nH]c3ccccc13)C(=O)N2` [compound 267] (H-GFCWNWCVYRNGVRVCHRRCN-OH; disulfide 3-20, 7-16 (inferred); N-terminus and C-terminus assumed) as the molecule, how does the fraction unbound read?
**A.** 0.15

**Q.** Which fraction unbound does the source give for `CC(C)[C@@H]1NC(=O)CNC(=O)[C@H](CC(N)=O)NC(=O)[C@H](CCCNC(=N)N)NC(=O)[C@H](Cc2ccc(O)cc2)NC(=O)[C@H](Cc2ccccc2)NC(=O)[C@@H]2CSSC[C@H](NC(=O)[C@H](C(C)C)NC(=O)[C@H](CCCNC(=N)N)NC1=O)C(=O)N[C@@H](Cc1c[nH]cn1)C(=O)N[C@@H](CCCNC(=N)N)C(=O)N[C@@H](CCCNC(=N)N)C(=O)N[C@H](C(=O)N[C@@H](CC(N)=O)C(=O)O)CSSC[C@H](NC(=O)[C@H](Cc1ccccc1)NC(=O)CN)C(=O)N[C@@H](Cc1c[nH]c3ccccc13)C(=O)N[C@@H](CC(N)=O)C(=O)N[C@@H](C(C)C)C(=O)N2` [compound 272] (H-GFCWNVCFYRNGVRVCHRRCN-OH; disulfide 3-20, 7-16) here?
**A.** 0.26

**Q.** With `CC(C)C[C@@H]1NC(=O)[C@@H]2CSSC[C@H](NC(=O)[C@H](C(C)C)NC(=O)[C@H](CCCNC(=N)N)NC(=O)[C@H](C(C)C)NC(=O)CNC(=O)[C@H](CC(N)=O)NC(=O)[C@H](CCCNC(=N)N)NC(=O)[C@H](Cc3ccc(O)cc3)NC1=O)C(=O)N[C@@H](Cc1c[nH]cn1)C(=O)N[C@@H](CCCNC(=N)N)C(=O)N[C@@H](CCCNC(=N)N)C(=O)N[C@H](C(=O)N[C@@H](CC(N)=O)C(=O)O)CSSC[C@H](NC(=O)[C@H](Cc1ccccc1)NC(=O)CN)C(=O)N[C@@H](Cc1c[nH]c3ccccc13)C(=O)N[C@@H](CC(N)=O)C(=O)N[C@@H](C(C)C)C(=O)N2` [compound 275] (H-GFCWNVCLYRNGVRVCHRRCN-OH; disulfide 3-20, 7-16 (inferred); N-terminus and C-terminus assumed) as the molecule, how does the fraction unbound read?
**A.** 0.2

**Q.** With `CC(C)[C@@H]1NC(=O)CNC(=O)[C@H](CC(N)=O)NC(=O)[C@H](CCCNC(=N)N)NC(=O)[C@H](Cc2ccc(O)cc2)NC(=O)[C@H](C(C)C)NC(=O)[C@@H]2CSSC[C@H](NC(=O)[C@H](C(C)C)NC(=O)[C@H](CCCNC(=N)N)NC1=O)C(=O)N[C@@H](Cc1c[nH]cn1)C(=O)N[C@@H](CCCNC(=N)N)C(=O)N[C@@H](CCCNC(=N)N)C(=O)N[C@H](C(=O)NCC(=O)O)CSSC[C@H](NC(=O)[C@H](Cc1ccccc1)NC(=O)CN)C(=O)N[C@@H](Cc1c[nH]c3ccccc13)C(=O)N[C@@H](CC(N)=O)C(=O)N[C@@H](C(C)C)C(=O)N2` [compound 281] (H-GFCWNVCVYRNGVRVCHRRCG-OH; disulfide 3-20, 7-16 (inferred); N-terminus and C-terminus assumed) as the molecule, how does the fraction unbound read?
**A.** 0.34

**Q.** For `CC(C)[C@@H]1NC(=O)CNC(=O)[C@H](CC(N)=O)NC(=O)[C@H](CCCNC(=N)N)NC(=O)[C@H](Cc2ccc(O)cc2)NC(=O)[C@H](C(C)C)NC(=O)[C@@H]2CSSC[C@H](NC(=O)[C@H](C(C)C)NC(=O)[C@H](CCCNC(=N)N)NC1=O)C(=O)N[C@@H](Cc1c[nH]cn1)C(=O)N[C@@H](CCCNC(=N)N)C(=O)N[C@@H](CCCNC(=N)N)C(=O)N[C@H](C(=O)N[C@@H](Cc1c[nH]cn1)C(=O)O)CSSC[C@H](NC(=O)[C@H](Cc1ccccc1)NC(=O)CN)C(=O)N[C@@H](Cc1c[nH]c3ccccc13)C(=O)N[C@@H](CC(N)=O)C(=O)N[C@@H](C(C)C)C(=O)N2` [compound 282] (H-GFCWNVCVYRNGVRVCHRRCH-OH; disulfide 3-20, 7-16 (inferred); N-terminus and C-terminus assumed), which fraction unbound is on record?
**A.** 0.18

**Q.** For `CC(C)[C@@H]1NC(=O)CNC(=O)[C@H](CC(N)=O)NC(=O)[C@H](CCCNC(=N)N)NC(=O)[C@H](Cc2ccc(O)cc2)NC(=O)[C@H](C(C)C)NC(=O)[C@@H]2CSSC[C@H](NC(=O)[C@H](C(C)C)NC(=O)[C@H](CCCNC(=N)N)NC1=O)C(=O)N[C@@H](Cc1c[nH]cn1)C(=O)N[C@@H](CCCNC(=N)N)C(=O)N[C@@H](CCCNC(=N)N)C(=O)N[C@H](C(=O)N[C@@H](CCCCN)C(=O)O)CSSC[C@H](NC(=O)[C@H](Cc1ccccc1)NC(=O)CN)C(=O)N[C@@H](Cc1c[nH]c3ccccc13)C(=O)N[C@@H](CC(N)=O)C(=O)N[C@@H](C(C)C)C(=O)N2` [compound 284] (H-GFCWNVCVYRNGVRVCHRRCK-OH; disulfide 3-20, 7-16 (inferred); N-terminus and C-terminus assumed), which fraction unbound is on record?
**A.** 0.28

**Q.** Which fraction unbound does the source give for `CC(C)[C@@H]1NC(=O)CNC(=O)[C@H](CC(N)=O)NC(=O)[C@H](CCCNC(=N)N)NC(=O)[C@H](Cc2ccc(O)cc2)NC(=O)[C@H](C(C)C)NC(=O)[C@@H]2CSSC[C@H](NC(=O)[C@H](C(C)C)NC(=O)[C@H](CCCNC(=N)N)NC1=O)C(=O)N[C@@H](Cc1c[nH]cn1)C(=O)N[C@@H](CCCNC(=N)N)C(=O)N[C@@H](CCCNC(=N)N)C(=O)N[C@H](C(=O)N[C@@H](CCCNC(=N)N)C(=O)O)CSSC[C@H](NC(=O)[C@H](Cc1ccccc1)NC(=O)CN)C(=O)N[C@@H](Cc1c[nH]c3ccccc13)C(=O)N[C@@H](CC(N)=O)C(=O)N[C@@H](C(C)C)C(=O)N2` [compound 289] (H-GFCWNVCVYRNGVRVCHRRCR-OH; disulfide 3-20, 7-16 (inferred); N-terminus and C-terminus assumed) here?
**A.** 0.17

**Q.** With `CC(C)[C@@H]1NC(=O)CNC(=O)[C@H](CC(N)=O)NC(=O)[C@H](CCCNC(=N)N)NC(=O)[C@H](Cc2ccc(O)cc2)NC(=O)[C@H](C(C)C)NC(=O)[C@@H]2CSSC[C@H](NC(=O)[C@H](C(C)C)NC(=O)[C@H](CCCNC(=N)N)NC1=O)C(=O)N[C@@H](Cc1c[nH]cn1)C(=O)N[C@@H](CCCNC(=N)N)C(=O)N[C@@H](CCCNC(=N)N)C(=O)N[C@H](C(=O)N[C@@H](Cc1c[nH]c3ccccc13)C(=O)O)CSSC[C@H](NC(=O)[C@H](Cc1ccccc1)NC(=O)CN)C(=O)N[C@@H](Cc1c[nH]c3ccccc13)C(=O)N[C@@H](CC(N)=O)C(=O)N[C@@H](C(C)C)C(=O)N2` [compound 291] (H-GFCWNVCVYRNGVRVCHRRCW-OH; disulfide 3-20, 7-16 (inferred); N-terminus and C-terminus assumed) as the molecule, how does the fraction unbound read?
**A.** 0.01

**Q.** With `CC(C)[C@@H]1NC(=O)CNC(=O)[C@H](CC(N)=O)NC(=O)[C@H](CCCNC(=N)N)NC(=O)[C@H](C)NC(=O)[C@H](C(C)C)NC(=O)[C@@H]2CSSC[C@H](NC(=O)[C@H](C(C)C)NC(=O)[C@H](CCCNC(=N)N)NC1=O)C(=O)N[C@@H](Cc1c[nH]cn1)C(=O)N[C@@H](CCCNC(=N)N)C(=O)N[C@@H](CCCNC(=N)N)C(=O)N[C@H](C(=O)N[C@@H](CC(N)=O)C(=O)O)CSSC[C@H](NC(=O)[C@H](Cc1ccccc1)NC(=O)CN)C(=O)N[C@@H](Cc1c[nH]c3ccccc13)C(=O)N[C@@H](CC(N)=O)C(=O)N[C@@H](C(C)C)C(=O)N2` [compound 299] (H-GFCWNVCVARNGVRVCHRRCN-OH; disulfide 3-20, 7-16 (inferred); N-terminus and C-terminus assumed) as the molecule, how does the fraction unbound read?
**A.** 0.26

— patent publication US20160158317A1, “Antimicrobial Peptide Variants and Polynucleotides Encoding Same” (Adenium Biotech A/S, priority 2010, published 2016)
